{
  "source": "patent US7648973B2",
  "about": "“2-methylene-1α,25-dihydroxy-19,21-dinorvitamin D3 analogs and uses thereof” (Wisconsin Alumni Research Foundation, priority 2006, dated 2010)",
  "key": {"[1]": {"target": "T1, full-length recombinant rat vitamin D receptor (Rattus norvegicus, UniProt P13053)", "T1 construct": "Full-length recombinant rat receptor was expressed in E. coli BL21(DE3) Codon Plus RIL cells; histidine tag (C); made in house; host or cells: E. coli BL21(DE3) Codon Plus RIL", "T1 sequence (P13053 1-423)": "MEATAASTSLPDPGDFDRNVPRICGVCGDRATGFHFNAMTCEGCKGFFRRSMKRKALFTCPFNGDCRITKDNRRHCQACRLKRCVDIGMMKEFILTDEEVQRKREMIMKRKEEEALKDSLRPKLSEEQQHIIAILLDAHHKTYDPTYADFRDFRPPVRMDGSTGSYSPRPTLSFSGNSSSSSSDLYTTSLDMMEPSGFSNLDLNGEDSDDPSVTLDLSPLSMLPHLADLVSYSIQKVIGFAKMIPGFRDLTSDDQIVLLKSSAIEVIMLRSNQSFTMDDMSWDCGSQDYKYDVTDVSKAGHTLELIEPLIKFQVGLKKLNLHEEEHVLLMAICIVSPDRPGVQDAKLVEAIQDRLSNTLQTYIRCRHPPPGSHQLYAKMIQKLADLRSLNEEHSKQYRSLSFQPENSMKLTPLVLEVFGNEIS", "assay": "Vitamin D receptor binding, competition with [3H]-1,25-(OH)2-D3", "conditions": "compared with 1α,25-dihydroxyvitamin D3; FIG. 1", "experimental": "The first system was a nickel affinity resin that utilizes the C-terminal histidine tag on this protein. The protein that was eluted from this resin was further purified using ion exchange chromatography (S-Sepharose Fast Flow). Aliquots of the purified protein were quick frozen in liquid nitrogen and stored at −80° C. until use. For use in binding assays, the protein was diluted in TEDK50 (50 mM Tris, 1.5 mM EDTA, pH 7.4, 5 mM DTT, 150 mM KCl) with 0.1% Chaps detergent. The receptor protein and ligand concentration was optimized such that no more than 20% of the added radiolabeled ligand was bound to the receptor.\nThe following day, 100 mcl of hydroxylapatite slurry (50%) was added to each tube and mixed at 10-minute intervals for 30 minutes. The hydroxylapaptite was collected by centrifugation and then washed three times with Tris-EDTA buffer (50 mM Tris, 1.5 mM EDTA, pH 7.4) containing 0.5% Titron X-100. After the final wash, the pellets were transferred to scintillation vials containing 4 ml of Biosafe II scintillation cocktail, mixed and placed in a scintillation counter. Total binding was determined from the tubes containing only radiolabeled ligand."}, "[2]": {"tested_on": "HL-60 cells", "assay": "HL-60 differentiation (nitro blue tetrazolium reduction)", "format": "cell-based, human", "conditions": "compared with 1α,25-dihydroxyvitamin D3; FIG. 4", "experimental": "The study drugs were dissolved in ethanol and the concentrations determined using UV spectrophotometry. Serial dilutions were prepared so that a range of drug concentrations could be tested without changing the final concentration of ethanol (<0.2%) present in the cell cultures.\nHuman promyelocytic leukemia (HL60) cells were grown in RPMI-1640 medium containing 10% fetal bovine serum. The cells were incubated at 37° C. in the presence of 5% CO2.\nHL60 cells were plated at 1.2×10^5 cells/ml. Eighteen hours after plating, cells in duplicate were treated with drug. Four days later, the cells were harvested and a nitro blue tetrazolium reduction assay was performed (Collins et al., 1979; J. Exp. Med. 149:969-974). The percentage of differentiated cells was determined by counting a total of 200 cells and recording the number that contained intracellular black-blue formazan deposits. Verification of differentiation to monocytic cells was determined by measuring phagocytic activity (data not shown)."}, "[3]": {"tested_on": "24-hydyroxylase (24Ohase) gene promoter in ROS 17/2.8 (bone) cells", "assay": "In vitro transcription assay (luciferase reporter)", "format": "cell-based", "conditions": "compared with 1α,25-dihydroxyvitamin D3; FIG. 5", "experimental": "Transcription activity was measured in ROS 17/2.8 (bone) cells that were stably transfected with a 24-hydyroxylase (24Ohase) gene promoter upstream of a luciferase reporter gene (Arbour et al., 1998). Cells were given a range of doses. Sixteen hours after dosing the cells were harvested and luciferase activities were measured using a luminometer. (RLU=relative luciferase units)"}, "[4]": {"assay": "Bone calcium mobilization (serum calcium)", "format": "in vivo, rat", "conditions": "at equimolar quantities or even at 27 times the dose of 1α,25-dihydroxyvitamin D3; ip, 4 consecutive days; FIG. 2", "experimental": "(§1) Male, weanling Sprague-Dawley rats were placed on Diet 11 (0.47% Ca) diet+AEK for one week followed by Diet 11 (0.02% Ca)+AEK for 3 weeks. The rats were then switched to a diet containing 0.47% Ca for one week followed by two weeks on a diet containing 0.02% Ca. Dose administration began during the last week on 0.02% calcium diet. Four consecutive ip doses were given approximately 24 hours apart. Twenty-four hours after the last dose, blood was collected from the severed neck and the concentration of serum calcium determined as a measure of bone calcium mobilization. The first 10 cm of the intestine was also collected for intestinal calcium transport analysis using the everted gut sac method. The everted gut sac assay was carried out as previously described by Martin and Deluca, Am. J. Physiol. 216, 1351 (1969); (DeLuca et al., U.S. Pat. No. 4,188,345), which are incorporated by reference as if fully set forth herein. Serum calcium was determined by atomic absorption spectrophotometry using a Perkin Elmer Model 3110 and by diluting the serum in 0.1% lanthanum chloride.\n(§2) The negative control material is prepared by volumetrically measuring ethanol (<5%) and propylene glycol, mixing, and then placing in storage at 2 to 8° C.\n(§3) The solution is mixed and then stored at 2 to 8° C. […]"}, "[5]": {"assay": "Intestinal calcium transport (everted gut sac)", "format": "in vivo, rat", "conditions": "compared with 1α,25-dihydroxyvitamin D3; ip, 4 consecutive days; FIG. 3", "experimental": "as §1, §2, §3"}},
  "note": "“Also recorded” adds a separate entry of the source.",
  "data": [
    {"smiles": "C=C1[C@H](O)CC(=C/C=C2\\CCC[C@]3(C)[C@@H](CCCCC(C)(C)O)CC[C@@H]23)C[C@H]1O", "note": "[TP-62, 2-methylene-1α,25-dihydroxy-19,21-dinorvitamin D3]", "values": [
      {"measurement": "binding to the recombinant vitamin D receptor", "setting": "[1]", "value": "comparably active when compared to 1α,25-dihydroxyvitamin D3; also recorded: relatively high binding"},
      {"measurement": "differentiation of HL-60 cells", "setting": "[2]", "value": "more active than 1α,25-dihydroxyvitamin D3"},
      {"measurement": "stimulating transcription of a reporter gene stably transfected in Ros17/2.8 (bone) cells", "setting": "[3]", "value": "equally active as 1α,25-dihydroxyvitamin D3"},
      {"measurement": "bone calcium mobilization", "setting": "[4]", "value": "lesser activity than 1α,25-dihydroxyvitamin D3; also recorded: lesser ability to mobilize calcium from bone"},
      {"measurement": "intestinal calcium transport activity", "setting": "[5]", "value": "greater or at least equal to 1α,25-dihydroxyvitamin D3"}
    ]}
  ]
}
